Test results taken from patent publication EP3046573B1, “AMYLIN ANALOGUES” (Zealand Pharma A/S, priority 2013, dated 2015).
Like-named read-outs stand apart in the source and are kept apart here. Numbered stars: 1 amine (or outer) side, 2 acyl side, 3 side chain; on linkers, the order of the positions; unused ones are H or OH. Bridge positions count the residues as written; N and C are the ends. Square brackets hold non-standard residues; d marks the D form. Peptide text beside a SMILES is read from it. * marks the point of attachment. C20 diacid = O=C(O)CCCCCCCCCCCCCCCCCCC(=O)*; γGlu = O=C(O)[C@H](CCC(=O)[*:2])N[*:1]; NMeI = CC[C@H](C)[C@H](NC)C(=O)O; Sar = CNCC(=O)O

Tests used:
[1] = target: T1, human calcitonin receptor (hCTR2) (Homo sapiens, UniProt P30988); test: hCTR2 assay: induction of cAMP (AlphaScreen cAMP Assay kit) in COS7 cells expressing hCTR2; assay type: cell-based
T1 construct: expressed in transfected cells
T1 sequence (P30988 25-474): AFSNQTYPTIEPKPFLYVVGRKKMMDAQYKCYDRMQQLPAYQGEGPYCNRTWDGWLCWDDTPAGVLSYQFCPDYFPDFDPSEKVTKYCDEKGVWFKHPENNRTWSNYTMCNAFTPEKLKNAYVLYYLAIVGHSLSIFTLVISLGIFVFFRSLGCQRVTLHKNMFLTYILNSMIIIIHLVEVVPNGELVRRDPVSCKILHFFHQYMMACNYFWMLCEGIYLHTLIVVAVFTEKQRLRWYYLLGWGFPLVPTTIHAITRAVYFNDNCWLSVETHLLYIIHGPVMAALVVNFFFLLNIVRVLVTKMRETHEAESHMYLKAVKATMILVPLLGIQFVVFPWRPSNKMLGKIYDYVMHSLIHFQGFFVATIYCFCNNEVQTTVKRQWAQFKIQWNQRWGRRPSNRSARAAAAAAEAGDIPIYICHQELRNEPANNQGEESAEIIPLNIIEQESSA
Outline: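 Stable RAMP-naive COS7 clone expressing hCTR2 was stimulated with increasing peptide concentrations in Tyrode buffer (pH 7.4) with 100 µM IBMX and 0.1% casein for 15 min at 37° C. Cells were lysed and cAMP measured by AlphaScreen. EC50 and efficacy relative to pramlintide came from 4PL curve fits.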

[2] = Solubility assessment (turbidity absorbance at 325 nm); assay type: physicochemical; details: stock 2 mg/ml diluted 1:1, ambient temperature (typically 25°C), n=1; for Solubility, Acetate buffer pH 4: 100 mM acetate buffer pH 4.0; for Solubility, Acetate buffer pH 5: 100 mM acetate buffer pH 5.0; for Solubility, Histidine buffer pH 6: 100 mM histidine buffer pH 6.0; for Solubility, Histidine buffer pH 7: 100 mM histidine buffer pH 7.0; for Solubility, Phosphate buffer pH 6: 100 mM phosphate buffer pH 6.0; for Solubility, Phosphate buffer pH 7: 100 mM phosphate buffer pH 7.0; for Solubility, Phosphate buffer pH 7.5: 100 mM phosphate buffer pH7.5
Outline: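 Stock 2 mg/ml peptide, H2O/HCl pH 2.5; 1:1 into 100 mM buffers: acetate pH 4.0/5.0, His pH 6.0/7.0, phosphate pH 6.0/7.0/7.5. A280 + A325, ~25°C, n=1. Soluble ≥ 1 mg/ml if A325 ≤ 0.02.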

[3] = cAMP induction in COS7 cells expressing hCTR2, average of a minimum of 3 determinations, read-out: hCTR2 EC50

Structure (SMILES)	EC50 [1, 3] [nM]	Solubility, Acetate buffer pH 4 [2]	Solubility, Acetate buffer pH 5 [2]	Solubility, Histidine buffer pH 6 [2]	Solubility, Histidine buffer pH 7 [2]	Solubility, Phosphate buffer pH 6 [2]	Solubility, Phosphate buffer pH 7 [2]	Solubility, Phosphate buffer pH 7.5 [2]	EC50 [1] [nM]
CC[C@H](C)[C@@H](C(=O)N[C@@H](CC(C)C)C(=O)N[C@@H](CO)C(=O)N[C@@H](CO)C(=O)N[C@H](C(=O)N[C@@H](CC(N)=O)C(=O)N[C@H](C(=O)NCC(=O)N[C@@H](CO)C(=O)N[C@@H](CC(N)=O)C(=O)N[C@H](C(=O)N1CCC[C@H]1C(N)=O)[C@@H](C)O)C(C)C)[C@@H](C)O)N(C)C(=O)[C@H](C)NC(=O)CN(C)C(=O)[C@H](Cc1ccccc1)NC(=O)[C@H](CC(N)=O)NC(=O)[C@H](CC(N)=O)NC(=O)[C@H](Cc1c[nH]cn1)NC(=O)[C@H](Cc1c[nH]cn1)NC(=O)[C@H](CC(C)C)NC(=O)[C@H](Cc1ccccc1)NC(=O)[C@H](CCC(=O)O)NC(=O)[C@H](C)NC(=O)[C@H](CC(C)C)NC(=O)[C@H](CCCNC(=N)N)NC(=O)[C@H](CCC(N)=O)NC(=O)[C@@H](NC(=O)[C@H](C)NC(=O)[C@@H]1CSSC[C@H](NC(=O)[C@H](CCCNC(=N)N)NC(=O)CC[C@H](NC(=O)CCCCCCCCCCCCCCCCCCC(=O)O)C(=O)O)C(=O)N[C@@H](CC(N)=O)C(=O)N[C@@H]([C@@H](C)O)C(=O)N[C@@H](C)C(=O)N[C@@H]([C@@H](C)O)C(=O)N1)[C@@H](C)O [Compound 47, [19CD]-isoGlu-RC()NTATC()ATQRLAEFLHHNNF-Gly(Me)-A-Ile(Me)-LSSTNVGSNTP-NH2] ({C20 diacid-γGlu}-RCNTATCATQRLAEFLHHNNF[Sar]A[NMeI]LSSTNVGSNTP-NH2; disulfide 2-7)	0.06	SS (SS indicates solubility ≥ 1mg/ml)	SS (SS indicates solubility ≥ 1mg/ml)	SS (SS indicates solubility ≥ 1mg/ml)	SS (SS indicates solubility ≥ 1mg/ml)	SS (SS indicates solubility ≥ 1mg/ml)	SS (SS indicates solubility ≥ 1mg/ml)	SS (SS indicates solubility ≥ 1mg/ml)	–
CC[C@H](C)[C@@H](C(=O)N[C@@H](CC(C)C)C(=O)N[C@@H](CO)C(=O)N[C@@H](CO)C(=O)N[C@H](C(=O)N[C@@H](CC(=O)O)C(=O)N[C@H](C(=O)NCC(=O)N[C@@H](CO)C(=O)N[C@@H](CC(=O)O)C(=O)N[C@H](C(=O)N1CCC[C@H]1C(N)=O)[C@@H](C)O)C(C)C)[C@@H](C)O)N(C)C(=O)[C@H](C)NC(=O)CN(C)C(=O)[C@H](Cc1ccccc1)NC(=O)[C@H](CO)NC(=O)[C@H](CO)NC(=O)[C@H](CCCNC(=N)N)NC(=O)[C@H](Cc1c[nH]cn1)NC(=O)[C@H](CC(C)C)NC(=O)[C@H](Cc1ccccc1)NC(=O)[C@H](CCC(=O)O)NC(=O)[C@H](C)NC(=O)[C@H](CC(C)C)NC(=O)[C@H](CCCNC(=N)N)NC(=O)[C@H](CCC(N)=O)NC(=O)[C@@H](NC(=O)[C@H](C)NC(=O)[C@@H]1CSSC[C@H](NC(=O)[C@H](CCCNC(=N)N)NC(=O)CC[C@H](NC(=O)CCCCCCCCCCCCCCCCCCC(=O)O)C(=O)O)C(=O)N[C@@H](CC(N)=O)C(=O)N[C@@H]([C@@H](C)O)C(=O)N[C@@H](C)C(=O)N[C@@H]([C@@H](C)O)C(=O)N1)[C@@H](C)O [Compound 81, [19CD]-isoGlu-RC()NTATC()ATQRLAEFLHRSSF-Gly(Me)-A-Ile(Me)-LSSTDVGSDTP-NH2] ({C20 diacid-γGlu}-RCNTATCATQRLAEFLHRSSF[Sar]A[NMeI]LSSTDVGSDTP-NH2; disulfide 2-7)	0.057	SS (SS indicates solubility ≥ 1mg/ml)	SS (SS indicates solubility ≥ 1mg/ml)	SS (SS indicates solubility ≥ 1mg/ml)	SS (SS indicates solubility ≥ 1mg/ml)	SS (SS indicates solubility ≥ 1mg/ml)	SS (SS indicates solubility ≥ 1mg/ml)	SS (SS indicates solubility ≥ 1mg/ml)	–
CC[C@H](C)[C@@H](C(=O)N[C@@H](CO)C(=O)N[C@@H](CO)C(=O)N[C@H](C(=O)N[C@@H](CC(N)=O)C(=O)N[C@H](C(=O)NCC(=O)N[C@@H](CO)C(=O)N[C@@H](CC(N)=O)C(=O)N[C@H](C(=O)N1CCC[C@H]1C(N)=O)[C@@H](C)O)C(C)C)[C@@H](C)O)N(C)C(=O)CN(C)C(=O)[C@H](Cc1ccccc1)NC(=O)[C@H](CC(N)=O)NC(=O)[C@H](CC(N)=O)NC(=O)[C@H](CO)NC(=O)[C@H](CO)NC(=O)[C@H](Cc1c[nH]cn1)NC(=O)[C@H](Cc1c[nH]cn1)NC(=O)[C@H](CC(C)C)NC(=O)[C@H](Cc1ccccc1)NC(=O)[C@H](CCC(=O)O)NC(=O)[C@H](C)NC(=O)[C@H](CC(C)C)NC(=O)[C@H](CCCNC(=N)N)NC(=O)[C@H](CCC(N)=O)NC(=O)[C@@H](NC(=O)[C@H](C)NC(=O)[C@@H]1CSSC[C@H](NC(=O)[C@H](CCCNC(=N)N)NC(=O)CC[C@H](NC(=O)CCCCCCCCCCCCCCCCCCC(=O)O)C(=O)O)C(=O)N[C@@H](CC(N)=O)C(=O)N[C@@H]([C@@H](C)O)C(=O)N[C@@H](C)C(=O)N[C@@H]([C@@H](C)O)C(=O)N1)[C@@H](C)O [Compound 55, [19CD]-isoGlu-RC()NTATC()ATQRLAEFLHHSSNNF-Gly(Me)-Ile(Me)-SSTNVGSNTP-NH2] ({C20 diacid-γGlu}-RCNTATCATQRLAEFLHHSSNNF[Sar][NMeI]SSTNVGSNTP-NH2; disulfide 2-7)	0.076	II (II indicates solubility ≤ 1 mg/ml)	II (II indicates solubility ≤ 1 mg/ml)	II (II indicates solubility ≤ 1 mg/ml)	II (II indicates solubility ≤ 1 mg/ml)	II (II indicates solubility ≤ 1 mg/ml)	II (II indicates solubility ≤ 1 mg/ml)	II (II indicates solubility ≤ 1 mg/ml)	–
CC[C@H](C)[C@@H](C(=O)N[C@@H](CC(C)C)C(=O)N[C@H](CO)C(=O)N[C@@H](CO)C(=O)N[C@H](C(=O)N[C@@H](CC(N)=O)C(=O)N[C@H](C(=O)NCC(=O)N[C@@H](CO)C(=O)N[C@@H](CC(N)=O)C(=O)N[C@H](C(=O)N1CCC[C@H]1C(N)=O)[C@@H](C)O)C(C)C)[C@@H](C)O)N(C)C(=O)[C@H](C)NC(=O)CN(C)C(=O)[C@H](Cc1ccccc1)NC(=O)[C@H](CC(N)=O)NC(=O)[C@H](CC(N)=O)NC(=O)[C@H](CO)NC(=O)[C@H](CO)NC(=O)[C@H](CCCNC(=N)N)NC(=O)[C@H](Cc1c[nH]cn1)NC(=O)[C@H](CC(C)C)NC(=O)[C@H](Cc1ccccc1)NC(=O)[C@H](CCC(=O)O)NC(=O)[C@H](C)NC(=O)[C@H](CC(C)C)NC(=O)[C@H](CCCNC(=N)N)NC(=O)[C@H](CCC(N)=O)NC(=O)[C@@H](NC(=O)[C@H](C)NC(=O)[C@@H]1CSSC[C@H](NC(=O)[C@H](CCCCN)NC(=O)CC[C@H](NC(=O)CCCCCCCCCCCCCCCCCCC(=O)O)C(=O)O)C(=O)N[C@@H](CC(N)=O)C(=O)N[C@@H]([C@@H](C)O)C(=O)N[C@@H](C)C(=O)N[C@@H]([C@@H](C)O)C(=O)N1)[C@@H](C)O [Compound 68, [19CD]-isoGlu-KC()NTATC()ATQRLAEFLHRSSNNF-Gly(Me)-A-Ile(Me)-L-DSer-STNVGSNTP-NH2] ({C20 diacid-γGlu}-KCNTATCATQRLAEFLHRSSNNF[Sar]A[NMeI]L[dS]STNVGSNTP-NH2; disulfide 2-7)	–	SS (SS indicates solubility ≥ 1mg/ml)	SS (SS indicates solubility ≥ 1mg/ml)	SS (SS indicates solubility ≥ 1mg/ml)	SS (SS indicates solubility ≥ 1mg/ml)	SS (SS indicates solubility ≥ 1mg/ml)	SS (SS indicates solubility ≥ 1mg/ml)	SS (SS indicates solubility ≥ 1mg/ml)	0.096
